The record followed here is US20240011041A1, “PHAGE COMPOSITIONS FOR P[…]-CAS SYSTEMS AND METHODS OF USE THEREOF” (priority 2020, published 2024).

The experiment deals with Pseudomonas aeruginosa isolates b1121, b2631, b3144. Briefly: Tobramycin MIC of the challenge isolates. In kind it is cell-based. Particulars: read-out: TOB MIC.

Where two headings read alike, the source gives them in different places.

The term MIC denotes the lowest concentration found to suppress growth. As for `NC[C@H]1O[C@H](O[C@H]2[C@H](O)[C@@H](O[C@H]3O[C@H](CO)[C@@H](O)[C@H](N)[C@H]3O)[C@H](N)C[C@@H]2N)[C@H](N)C[C@@H]1O` [TOB, tobramycin], the MIC was determined as 0.5 µg/mL (isolate b1121, Respiratory); 0.5 µg/mL (isolate b2631, CF isolate); 2 µg/mL (isolate b3144, CF isolate).
